From US20220073883A1, “COMPOSITIONS AND METHODS FOR GENERATION OF HEART FIELD-SPECIFIC PROGENITOR CELLS” (The Johns Hopkins University, priority 2018, published 2022)
Entries after “also recorded” stand apart in the source; their conditions may differ.

B1: Activin A: TGF-β protein; key ligand for Activin/TGF signaling (protein, UniProt P08476 311-426, looked up)
Inhibin beta A chain: GLECDGKVNICCKKQFFVSFKDIGWNDWIIAPSGYHANYCEGECPSHIAGTSGSSLSFHSTVINHYRMRGHSPFANLKSCCVPTKLRPMSMLYYDDGQNIIKKDIQNMIVEECGCS
modifications: Inhibin beta A chain

Legend:
Type in all cases: cell-based, mouse
[1] = system: ESC-derived cardiac spheroids (Hcn4-GFP; Tbx1-Cre; Ai9); assay: heart field specification: Hcn4-GFP+ and Tbx1-Cre, RFP+ CPCs in cardiac spheroids by FACS at day 5.5; conditions: increasing levels of the factor; day 5.5
Text: (§1) Next, an embryonic stem cell (ESC) line (ESCHcn4-GFP; Tbx1-Cre Ai9) was established from the mice to determine if heart field specification can be recapitulated in a PSC system. It was hypothesized that a 3D multicellular system would better resemble heart field development in vivo, as early development is a highly dynamic process that involves tissue-tissue interactions between multiple cell types. Since CPCs are specified during mid-late gastrulation 7, 8, multicellular 3D spheroids were generated with the PSCs and treated them with various concentrations of Activin A and Bmp4 to determine whether induction of the early mesoderm influences heart field specification (FIGS. 1C and 1D).
IPA utilizes an input gene list and a curated database of literature-derived pathways to infer which canonical pathways are most significant to the input data set. The analysis was focused on pathways related to ‘organism growth and development’. […] The effect of Bmp signals was evaluated during heart field specification. In order to minimize the possibility of influencing heart field cells after induction, all of the data were analyzed within 12 hs after the appearance of GFP^+/RFP^+ cells.
(§2) Mouse ESCs and human iPSCs were maintained and differentiated as previously described^5, 43, 68 Briefly, mESCs were maintained on gelatin-coated dishes in maintenance medium (Glasgow minimum essential medium supplemented with 10% fetal bovine serum and […] Chir99021 and 1 μM PD98059 or 1000 U/ml ESGRO (Millipore, Billerica, Mass.), Glutamax, sodium pyruvate, MEM non-essential amino acids (Thermo Fisher Scientific). For spheroid formation and differentiation, mouse ESCs were plated in IMDM/Ham's F12 (Cellgro) (3:1) supplemented with N2, B27, penicillin/streptomycin, 2 mM GlutaMAX, 0.05% BSA, 5 ng/ml L-ascorbic acid (Sigma-Aldrich) and α-monothioglycerol (MTG; Sigma-Aldrich) at a final density of 100,000 cells/ml to allow spheroid formation. After 48 h spheroids were collected and transferred to ultra-low attachment plastic surface and induced for 40 hours with Activin A, Bmp4, Wnt3A, Wnt5A, Wnt11 (R&D Systems) alone or in combination. Human iPSCs were maintained in Geltrex-coated T25 flasks using Essential 8 medium. For spheroid formation and differentiation, hiPSCs were plated in RPMI plus B27 minus insulin with Bmp4 and CHIR99021 and incubated for 48 h. After 48 h media was changed to RPMI plus B27 minus insulin. The hiPSC line used in this study was developed by Dr. Linzhao Cheng, the Johns Hopkins University, and had was generated from a de-identified patient using an approved IRB protocol.
Mouse embryos (E7.75) were dissected using forceps under a stereomicroscope (Zeiss) and regions of interest were dissociated and harvested using TrypLE. Embryoid bodies (EBs) and cells were dissociated and harvested using TrypLE. Single-cells were analyzed for RFP/GFP expression or sorted using a SH800 Cell sorter (Sony Biotechnologies). Live cells were analyzed for RFP and GFP expression and stained with antibodies targeting for the presence of appropriate markers. […] Data was analyzed using FlowJo software.

[2] = system: ESC-derived cardiac spheroids; assay: cardiogenesis: cTnT+ cardiomyocytes in cardiac spheroids at day 9 (flow cytometry); conditions: for effect on cardiogenesis: varying/increasing concentrations, cTnT+ at day 9
Text: as §1, with “1D). After 5 days of differentiation (120 h), GFP+ and RFP+ cells started to appear in the spheroids. The spheroids were analyzed for GFP+ and RFP+ cells by fluorescent activated cell sorting (FACS) at day 5.5 (132 h). […] The double positive GFP+/RFP+ cells correlated with the total number of GFP+ and RFP+ cells (FIG. 6J) and were sporadically interspersed within the GFP+ domain (FIG. 6K).” for “1D).”
The overall effects on cardiogenesis were evaluated by analyzing the number of cardiomyocytes at day 9 (FIG. 6L).
as §2, with “After 48 h media was changed to RPMI plus B27 minus insulin. The hiPSC line used in this study was developed by Dr. Linzhao Cheng, the Johns Hopkins University, and had was generated from a de-identified patient using an approved IRB protocol.” left out
Mouse embryos (E7.75) were dissected using forceps under a stereomicroscope (Zeiss) and regions of interest were dissociated and harvested using TrypLE. […] Single-cells were analyzed for RFP/GFP expression or sorted using a SH800 Cell sorter (Sony Biotechnologies). Live cells were analyzed for RFP and GFP expression and stained with antibodies targeting for the presence of appropriate markers. […] Data was analyzed using FlowJo software.

[3] = system: ESC-derived cardiac spheroids; assay: qPCR of FHF (tbx5, hcn4) and SHF (tbx1, fgf10) markers in treated spheroids; conditions: Bmp4 (1.25 ng/ml) alone
Description: To investigate the crosstalk between Bmp and Wnt signals, the spheroids were treated with Bmp4 and Wnts in combinations and analyzed expression levels of FHF (tbx5, hcn4) and SHF (tbx1, fgf10) markers.
as §2
RNA isolation was performed using either RNeasy Micro Kit (Cat #74004, Qiagen) or […]® PicoPure® RNA Isolation Kit following the manufacturer's instructions, and cDNA was generated using the high-capacity cDNA reverse transcription kit (Applied Biosystems). qPCR reactions were performed using the Taqman (Applied Biosystems) or Sybr Select qPCR mix (Thermo Fisher) with indicated primers. Gene expression levels were normalized to Gapdh. For the clonal cell-fate analysis, single Isl1-Cre RFP+, Cxcr4− and Isl1-Cre RFP^+, Cxcr4^+ cells were sorted at day 5.5 into 384-well plates and allowed to grow and differentiate for 7 days. […] RNA was isolated from 24 wells with colonies from Cxcr4− and Cxcr4+ sorted cells, respectively. Ct values<30 were considered positive. All samples were also analyzed for gapdh to exclude false-positive results.

canonical Wnt activity = assay: Topflash luciferase assay; conditions: Bmp4 (1.25 ng/ml) alone; 88 h of differentiation
Description: To test this, canonical Wnt activity was measured with its readout Topflash.
For Tbx1 and Tbx5 knockdown experiments, Tbx1 and Tbx5 ON-TARGETplus SMARTpool siRNA or scrambled siRNA (Dharmacon/Thermo Fisher Scientic) was used at 5 nM for cell transfection. Cells were transfected with Lipofectamine LTX (Life Technologies) in single-cell suspensions. For TOP-flash luciferase assays, mESCs were transfected with Topflash constructs and Renilla constructs and analyzed as previously described 5.

Molecule	induction of GFP+ cells (FHF) [1]	induction of RFP+ cells (SHF) [1]	number of cTnT+ cardiomyocytes ([2]; 1.25 ng/ml Bmp4, day 9) [%]	difference in number of cTnT+ cardiomyocytes compared to 0.5 ng/ml Bmp4 ([2]; 1.25 ng/ml vs 0.5 ng/ml Bmp4, day 9) [fold]	effect on cardiogenesis [2]	expression of FHF markers (tbx5, hcn4) [3]	expression of SHF markers (tbx1, fgf10) [3]	topflash activity (canonical Wnt activity)
Bmp4: bone morphogenic protein (Bmp) 4, R&D Systems	promoted induction	promoted induction	> 30	> 10	profound effect	increased expression	increased expression	increased
B1	no apparent effect; also recorded: no overall effect	no apparent effect; also recorded: no overall effect			modest effect; also recorded: did not have a significant effect			
